Source: patent US7659401B2, “Thiazolo[4,5-C]pyridine derivatives” (Hoffmann-La Roche Inc., priority 2005, dated 2010)

Target: T1, human mGlu 5a receptor (Homo sapiens, UniProt P41594)
T1 construct: expressed in transfected cells; host or cells: EBNA cells (transient transfection); cell membrane homogenates
Assay: [3H]MPEP competition binding on membranes of EBNA cells transiently transfected with human mGlu 5a receptor
Details: displacement of [3H]MPEP (2 nM), 1 h at 4° C., Ki=IC50/[1+L/Kd]
Description: The pharmacological activity of the compounds was tested using the following method: For binding experiments, cDNA encoding human mGlu 5a receptor was transiently transfected into EBNA cells using a procedure described by Schlaeger and Christensen [Cytotechnology 15:1-13 (1998)]. Cell membrane homogenates were stored at −80° C. until the day of assay where upon they were thawed and resuspended and polytronised in 15 mM Tris-HCl, 120 mM NaCl, 100 mM KCl, 25 mM CaCl2, 25 mM MgCl2 binding buffer at pH 7.4 to a final assay concentration of 20 μg protein/well.
Saturation isotherms were determined by addition of twelve [^3H]MPEP concentrations (0.04-100 nM) to these membranes (in a total volume of 200 μL) for 1 h at 4° C. Competition experiments were performed with a fixed concentration of [^3H]MPEP (2 nM) and IC50 values of test compounds evaluated using 11 concentrations (0.3-10,000 nM). Incubations were performed for 1 h at 4° C.
At the end of the incubation, membranes were filtered onto unifilter (96-well white microplate with bonded GF/C filter preincubated 1 h in 0.1% PEI in wash buffer, Packard Bio-Science, Meriden, Conn.) with a Filtermate 96 harvester (Packard BioScience) and washed 3 times with cold 50 mM Tris-HCl, pH 7.4 buffer. Nonspecific binding was measured in the presence of 10 μM MPEP. The radioactivity on the filter was counted (3 min) on a Packard Top-count microplate scintillation counter with quenching correction after addition of 45 μl of microscint 40 (Canberra Packard S.A., Zürich, Switzerland) and shaking for 20 min.
For binding experiments the Ki values of the compounds tested are given. The Ki value is defined by the following formula: Ki=IC50/[1+L/Kd] in which the IC50 values are those concentrations of the compounds tested which cause 50% inhibition of the competing radioligand ([^3H]MPEP). L is the concentration of radioligand used in the binding experiment and the Kd value of the radioligand is empirically determined for each batch of membranes prepared.

T1 sequence (P41594 21-1180 isoform P41594-2 limits assumed): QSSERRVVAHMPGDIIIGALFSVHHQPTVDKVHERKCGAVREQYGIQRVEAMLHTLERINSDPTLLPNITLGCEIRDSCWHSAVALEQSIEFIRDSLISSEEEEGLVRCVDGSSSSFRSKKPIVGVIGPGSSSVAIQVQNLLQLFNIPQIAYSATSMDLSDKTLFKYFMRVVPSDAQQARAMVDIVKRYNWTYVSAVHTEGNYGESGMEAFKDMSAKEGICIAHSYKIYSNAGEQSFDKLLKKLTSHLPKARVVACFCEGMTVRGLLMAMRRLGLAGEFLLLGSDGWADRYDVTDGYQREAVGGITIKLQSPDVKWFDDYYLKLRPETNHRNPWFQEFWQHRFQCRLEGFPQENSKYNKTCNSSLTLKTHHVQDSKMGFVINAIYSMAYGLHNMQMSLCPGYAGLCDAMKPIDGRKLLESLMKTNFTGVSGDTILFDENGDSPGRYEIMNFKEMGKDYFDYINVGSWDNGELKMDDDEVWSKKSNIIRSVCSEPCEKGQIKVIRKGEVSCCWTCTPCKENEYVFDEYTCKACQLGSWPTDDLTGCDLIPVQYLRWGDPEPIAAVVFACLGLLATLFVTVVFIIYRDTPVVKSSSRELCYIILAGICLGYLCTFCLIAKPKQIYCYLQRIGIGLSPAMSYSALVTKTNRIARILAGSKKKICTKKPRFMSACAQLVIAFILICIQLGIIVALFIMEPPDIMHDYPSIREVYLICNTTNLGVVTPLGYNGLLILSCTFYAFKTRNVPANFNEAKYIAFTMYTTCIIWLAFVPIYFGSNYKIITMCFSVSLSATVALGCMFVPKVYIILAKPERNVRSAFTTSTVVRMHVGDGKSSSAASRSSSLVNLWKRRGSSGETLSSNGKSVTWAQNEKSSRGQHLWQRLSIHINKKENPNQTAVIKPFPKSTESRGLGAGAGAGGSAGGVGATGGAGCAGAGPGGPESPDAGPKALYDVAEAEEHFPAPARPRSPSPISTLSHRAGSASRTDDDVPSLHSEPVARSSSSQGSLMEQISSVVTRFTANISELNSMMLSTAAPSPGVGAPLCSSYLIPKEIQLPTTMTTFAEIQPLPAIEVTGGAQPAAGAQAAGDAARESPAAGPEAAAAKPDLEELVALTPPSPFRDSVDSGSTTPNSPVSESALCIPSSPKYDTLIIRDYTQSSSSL

Structure (SMILES)	Ki
Cc1csc(Nc2ncc(-c3cncnc3)c3sc(C)nc23)n1 [Example 9]	0.061 µM
Cc1nccc(Nc2ncc(-c3cccc(S(C)(=O)=O)c3)c3sc(C)nc23)n1 [Example 17, [7-(3-Methanesulfonyl-phenyl)-2-methyl-thiazolo[4,5-c]pyridin-4-yl]-(2-methyl-pyrimidin-4-yl)-amine]	0.128 µM
Cc1csc(Nc2ncc(-c3cc(F)cc(F)c3)c3sc(C)nc23)n1 [Example 19, [7-(3,5-Difluoro-phenyl)-2-methyl-thiazolo[4,5-c]pyridin-4-yl]-(4-methyl-thiazol-2-yl)-amine]	0.029 µM
Cc1nc(Nc2ncc(-c3ccnc(Cl)c3)c3sc(C)nc23)cs1 [Example 14, [7-(2-Chloro-pyridin-4-yl)-2-methyl-thiazolo[4,5-c]pyridin-4-yl]-(2-methyl-thiazol-4-yl)-amine]	0.045 µM
Cc1nc(Nc2ncc(-c3cccnc3)c3sc(C)nc23)cs1 [Example 2, (2-Methyl-7-pyridin-3-yl-thiazolo[4,5-c]pyridin-4-yl)-(2-methyl-thiazol-4-yl)-amine]	0.037 µM
Cc1nc2c(Nc3cccc(Cl)c3)nccc2s1 [Example 1]	0.026 µM
Cc1nc2c(Nc3ccc(F)cn3)ncc(-c3cccnc3)c2s1 [Example 4]	0.04 µM
Cc1ccc(Nc2ncc(-c3cncc(F)c3)c3sc(C)nc23)nc1 [Example 20, [7-(5-Fluoro-pyridin-3-yl)-2-methyl-thiazolo[4,5-c]pyridin-4-yl]-(5-methyl-pyridin-2-yl)-amine]	0.087 µM
Cc1csc(Nc2ncc(-c3cccnc3)c3sc(C)nc23)n1 [Example 3, (2-Methyl-7-pyridin-3-yl-thiazolo[4,5-c]pyridin-4-yl)-(4-methyl-thiazol-2-yl)-amine]	0.042 µM
Cc1nc2c(Nc3ccn(C)n3)ncc(-c3cccnc3)c2s1 [Example 5]	0.167 µM
